The results in this text go back to PMC6025875, “Genetic manipulation of Leishmania donovani threonyl tRNA synthetase facilitates its exploration as a potential therapeutic target” (PLoS Neglected Tropical Diseases, 2018).

In series [1] the target is T1, threonyl tRNA synthetase (LdThrRS) (Leishmania donovani, UniProt A0A3S7X901).
T1 construct: gene LdCL_350019100; full-length recombinant LdThrRS with N-terminal His6 tag (rLdThrRS, pET30a, E. coli BL21 (DE3))
Description: ITC at […]°C (N = […]); also inhibits aminoacylation of the purified enzyme, IC50 […]. The format is binding.

Substrate in series [2]: C[C@@H](O)[C@H](N)C(=O)O
Description: purified protein.

In series [1], `C[C@@H]1C[C@H](C)C[C@H](C)[C@@H](O)CC(=O)O[C@H]([C@@H]2CCC[C@H]2C(=O)O)C/C=C/C=C(/C#N)[C@H](O)[C@@H](C)C1` [borrelidin] displayed a Kd of 40 nM.

B1: threonyl tRNA synthetase (LdThrRS) (Leishmania donovani) (protein)
chain: MSGKKKAAEATVDLATLAEPGFWRQRVEIFEQLWQQQQNRYESMKAPIKVSLPDGKVMDAESWVTCPLDIAKRLSNSLPDKVIVARVNEALWDLTRPFEADCQLELLDWDDKDAREVFWHSSSHVLGYALERIFDTKLSVGPALEEGGFFYEGLTNRPVSESDYKAIESAMQELVKQKMPYQRLEVSKEDALRLFGYTEFKSKILASKVPDGGSCTVYRCGMLIDPCRGPHLPDTGRVKAFAVTKNSSSYFEGKAENEVLQRVYGISFPKNPMLTEWKTIQEEAAKRDHRVIGRQQNLFNFHEVSPGSAFWLPHGTRIYNTLVEFLRKKYRRCGFQEVISPNMYSSKLWMVSGHWEKYADNMFCTKCEKEDFGLKPMNCPGHCIMFASQPHSYKELPIRYADFGVLHRNELSGALTGLTRVRRFQQDDAHIFCRMDQITDEMEGQMQFLSDVYGVLGFKFYFYHSTRPANKLGSDALWDQSESYLRTALNRFCGIPEELPDPLHPDQRFHYDGKPDSVKKMKALMKKAERCEDPNAWKGPTNGGDGWIENAGDGAFYGPKIDIVVEDALRRRHQCATIQLDFNLPSRFGLKYTLPAAEKDETTVSPTEKQKHADPALTASSPAVEDCVSKPKPGTYEAAVRDLGIDLELDANQARPVMIHRAILGSLERSIAILCEHFGGDWPFWLSPRQVMVVPVSASNYEYSQQVRDTMHDAGFHADVDNGAATLDKKIRNAEKARYNFILVVGQKEQDATAVNIRARGEKRLGNKSLVEAVQWLKELADTHNREY
For the molecule B1, in series [2], the Km is 250 ± 30 µM.

As a reminder, the Kd is the concentration at which binding is half-saturated. Low readings indicate higher affinity, high ones lower affinity. In general, Km refers to the substrate concentration at which the rate is half of its maximum.
